Values after ≈ are worked out from the molar mass of the structure shown. Active and inactive are the calls of the source. The calls are words filed in the database; no cut-off is given here.
Experiments:
Staphylococcus aureus [1] = experiment: Antibacterial activity against methicillin-resistant Staphylococcus aureus N315 assessed as inhibition of bacterial growth incubated for 24 hrs by CLSI based broth dilution method; type: functional
Pseudomonas aeruginosa [2] = experiment: Antibacterial activity against Pseudomonas aeruginosa ATCC 9027 assessed as inhibition of bacterial growth incubated for 24 hrs by CLSI based broth dilution method; type: functional
Acinetobacter baumannii [3] = experiment: Antibacterial activity against Acinetobacter baumannii ATCC 17978 assessed as inhibition of bacterial growth incubated for 24 hrs by CLSI based broth dilution method; type: functional
Klebsiella pneumoniae = experiment: Antibacterial activity against Klebsiella pneumoniae ATCC 14581 assessed as inhibition of bacterial growth incubated for 24 hrs by CLSI based broth dilution method; type: functional
Staphylococcus aureus [4] = experiment: Antibacterial activity against Staphylococcus aureus ATCC 29213 assessed as fold increase in MIC incubated for 24 hrs in presence of 2.5 mM Ca2+ by CLSI based broth dilution method; type: functional
Staphylococcus aureus [5] = experiment: Antibacterial activity against Staphylococcus aureus NCTC10442 assessed as fold increase in MIC incubated for 24 hrs in presence of 4.5 mM K+ by CLSI based broth dilution method; type: functional
Acinetobacter baumannii [6] = experiment: Antibacterial activity against Acinetobacter baumannii ATCC 17978 assessed as fold increase in MIC incubated for 24 hrs in presence of 4.5 mM K+ by CLSI based broth dilution method; type: functional
Escherichia coli [7] = experiment: Antibacterial activity against Escherichia coli ATCC 25922 assessed as fold increase in MIC incubated for 24 hrs in presence of 140 mM Na+ by CLSI based broth dilution method; type: functional
Escherichia coli [8] = experiment: Antibacterial activity against Escherichia coli ATCC 25922 assessed as fold increase in MIC incubated for 24 hrs in presence of 4.5 mM K+ by CLSI based broth dilution method; type: functional
Staphylococcus aureus [9] = experiment: Bactericidal activity against Staphylococcus aureus ATCC 29213 assessed as bacterial killing at 8 times MIC measured after 24 hrs by time-killing assay relative to control; type: functional
Escherichia coli [10] = experiment: Bactericidal activity against Escherichia coli ATCC 25922 assessed as log reduction in viable bacteria at 4 times MIC measured after 2 hrs by time-killing assay; type: functional
Cell membrane [11] = experiment: Disruption of membrane integrity in Staphylococcus aureus ATCC 29213 assessed as increase in fluorescence intensity at 1 to 8 times MIC by SYTOX green dye based fluorescence analysis; conditions: DDE = dose-dependent effect
Cell membrane [12] = experiment: Disruption of membrane integrity in Staphylococcus aureus ATCC 29213 assessed as increase in red fluorescence intensity at 8 times MIC incubated for 2 hrs by SYTO 9/PI staining based fluorescence analysis; type: subcellular
Pseudomonas aeruginosa [13] = experiment: Induction of cell death in Pseudomonas aeruginosa ATCC 9027 assessed as residual living cells at 8 times MIC incubated for 2 hrs by SYTO 9/PI staining based fluorescence analysis relative to control; type: functional
Lipoteichoic acid [14] = experiment: Displacement of BODIPY-TR-cadaverine from Bacillus subtilis Lipoteichoic acid at 1 times MIC measured for 30 mins by fluorescence based microplate reader assay relative to control
Lipoteichoic acid [15] = experiment: Displacement of BODIPY-TR-cadaverine from Bacillus subtilis Lipoteichoic acid at 2 times MIC measured for 30 mins by fluorescence based microplate reader assay relative to control
Lipoteichoic acid [16] = experiment: Displacement of BODIPY-TR-cadaverine from Bacillus subtilis Lipoteichoic acid at 8 times MIC measured for 30 mins by fluorescence based microplate reader assay relative to control
Lipopolysaccharide (LPS) [17] = experiment: Displacement of BODIPY-TR-cadaverine from Escherichia coli Lipopolysaccharide at 1 times MIC measured for 30 mins by fluorescence based microplate reader assay relative to control
Lipopolysaccharide (LPS) [18] = experiment: Displacement of BODIPY-TR-cadaverine from Escherichia coli Lipopolysaccharide at 4 times MIC measured for 30 mins by fluorescence based microplate reader assay relative to control
Lipopolysaccharide (LPS) [19] = experiment: Displacement of BODIPY-TR-cadaverine from Escherichia coli Lipopolysaccharide at 8 times MIC measured for 30 mins by fluorescence based microplate reader assay relative to control
Staphylococcus aureus [20] = experiment: Induction of drug resistance in Staphylococcus aureus ATCC 29213 assessed as fold change in MIC measured after 19 passages by CLSI based broth dilution method; type: functional
[21] = Cytotoxicity against mouse NCTC clone 929 cells assessed as cell viability at 12.5 ug/ml incubated for 24 hrs by CCK-8 assay relative to control; type: toxicity, cell-based; conditions: at 12.5 µg/mL, read-out: Activity
[22] = Cytotoxicity against HEK293 cells assessed as cell viability at 3.125 ug/ml incubated for 24 hrs by CCK-8 assay relative to control; type: toxicity, cell-based; conditions: human, at 3.125 µg/mL, read-out: Activity
[23] = Cytotoxicity against HEK293 cells assessed as cell viability at 50 ug/ml incubated for 24 hrs by CCK-8 assay relative to control; type: toxicity, cell-based; conditions: human, at 50 µg/mL, read-out: Activity
Escherichia coli [24] = experiment: Antibiofilm activity against Escherichia coli ATCC 25922 assessed reduction in biofilm formation at 0.39 ug/ml measured after 24 hrs by crystal violet staining based assay relative to control; type: functional; set-up: scale not given: the % may be the effect or the level left; conditions: dose 0.39 µg/ml
Staphylococcus aureus [25] = experiment: Antibiofilm activity against Staphylococcus aureus ATCC 29213 assessed reduction in biofilm formation at 0.78 ug/ml measured after 24 hrs by crystal violet staining based assay relative to control; type: functional; set-up: scale not given: the % may be the effect or the level left; conditions: dose 0.78 µg/ml
Staphylococcus aureus [26] = experiment: Antibacterial activity against Staphylococcus aureus ATCC 29213 assessed as eradication of preformed bacterial biofilm by measuring residual biofilm viability at 3.125 ug/ml incubated for 24 hrs by crystal violet staining based assay relative to control; type: functional; conditions: dose 3.125 µg/ml
Staphylococcus aureus [27] = experiment: Antibacterial activity against Staphylococcus aureus ATCC 29213 assessed as eradication of preformed bacterial biofilm by measuring residual biofilm viability at 6.25 ug/ml incubated for 24 hrs by crystal violet staining based assay relative to control; type: functional; conditions: dose 6.25 µg/ml
Staphylococcus aureus [28] = experiment: Antibacterial activity against Staphylococcus aureus ATCC 29213 assessed as eradication of preformed bacterial biofilm by measuring residual biofilm viability at 25 ug/ml incubated for 24 hrs by crystal violet staining based assay relative to control; type: functional; conditions: dose 25 µg/ml
Escherichia coli [29] = experiment: Antibacterial activity against Escherichia coli ATCC 25922 assessed as eradication of preformed bacterial biofilm by measuring residual biofilm viability at […] ug/ml incubated for 24 hrs by crystal violet staining based assay relative to control; type: functional; conditions: dose […] microg/ml, 1.56 ug/mL
Escherichia coli [30] = experiment: Antibacterial activity against Escherichia coli ATCC 25922 assessed as eradication of preformed bacterial biofilm by measuring residual biofilm viability at 3.125 ug/ml incubated for 24 hrs by crystal violet staining based assay relative to control; type: functional; conditions: dose 3.125 µg/ml
Escherichia coli [31] = experiment: Antibacterial activity against Escherichia coli ATCC 25922 assessed as eradication of preformed bacterial biofilm by measuring residual biofilm viability at 6.25 ug/ml incubated for 24 hrs by crystal violet staining based assay relative to control; type: functional; conditions: dose 6.25 µg/ml
Pseudomonas aeruginosa [32] = experiment: Antibacterial activity against Pseudomonas aeruginosa ATCC 9027 in C57BL/6 mouse model of bacterial keratitis assessed as log reduction in number of viable bacterial colonies in infected cornea at 0.8 mg/ml, TOP administered 4 times a day for 3 consecutive days; type: functional; conditions: time 3 day

With `C=C[C@@](C)(/C=C/c1ccc(OCCCCN(CCCN(C)C)CCCN(C)C)cc1)CCC=C(C)C` the MIC (Staphylococcus aureus [1]) was 1.56 mg/L (≈ 3.13 µM), the MIC (Pseudomonas aeruginosa [2]) was 3.12 mg/L (≈ 6.28 µM) and the MIC (Acinetobacter baumannii [3]) was 3.12 mg/L (≈ 6.28 µM). For the same compound, the MIC (Klebsiella pneumoniae) was 3.12 mg/L (≈ 6.28 µM), the “fold change (FC)” value (Staphylococcus aureus [4]) was under 2 and the “fold change (FC)” value (Staphylococcus aureus [5]) was under 2. For the same compound, the “fold change (FC)” value (Acinetobacter baumannii [6]) was under 2, the “fold change (FC)” value (Escherichia coli [7]) was under 2 and the “fold change (FC)” value (Escherichia coli [8]) was under 2. The Activity (Staphylococcus aureus [9]) was 100%, the “log(activity)” value (Escherichia coli [10]) was 4.28 and the Activity (Cell membrane [11]) was “Dde”. The Activity (Cell membrane [12]) was “Active”, the Activity (Pseudomonas aeruginosa [13]) was 0.3% and the Activity (Lipoteichoic acid [14]) was 25.4%. For the same compound, the Activity (Lipoteichoic acid [15]) was 35.3%, the Activity (Lipoteichoic acid [16]) was 57.9% and the Activity (Lipopolysaccharide (LPS) [17]) was 36.9%. It also gave an Activity (Lipopolysaccharide (LPS) [18]) of 64.4%, an Activity (Lipopolysaccharide (LPS) [19]) of 85.6% and a fold change (FC) (Staphylococcus aureus [20]) of under 4. The viability at 24 h, 12.5 ug/ml [21] was 84.5%, the viability at 24 h, 3.125 ug/ml [22] was 94.1% and the viability at 24 h, 50 ug/ml [23] was 14.4%. It also gave an Activity (Escherichia coli [24]) of 4.04%, an Activity (Staphylococcus aureus [25]) of 12.91% and an Activity (Staphylococcus aureus [26]) of 52.49%. The Activity (Staphylococcus aureus [27]) was 34.11%, the Activity (Staphylococcus aureus [28]) was 11.49% and the Activity (Escherichia coli [29]) was 69.09%. For the same compound, the Activity (Escherichia coli [30]) was 49.85%, the Activity (Escherichia coli [31]) was 22.69% and the “log(activity)” value (Pseudomonas aeruginosa [32]) was 2.95.
